Test results reported in PMC9327782, “Benzoxazole derivatives as new VEGFR-2 inhibitors and apoptosis inducers: design, synthesis, in silico studies, and antiproliferative evaluation” (Journal of Enzyme Inhibition and Medicinal Chemistry, 2022).
Read-outs that look alike come from different tables or passages of the source.

Key:
Type in all cases: cell-based, human
BAX = assay: Western blot, BAX level in HepG2 cells; settings: HepG2, 24 h
Procedure: (§1) Compound 12lwas subjected to further cellular mechanistic study. The cellular levels of BAX and Bcl-2 were measured using the western blot technique after compound 12l was applied to HepG2 cells for 24 h.
(§2) The western blot technique was applied in accordance with the comprehensive description in Supplementary data[38–40] […]
(§3) The proteins expression of cleaved caspase‐3, BAX, and Bcl‐2 were determined using Western blot analysis. In brief, HepG2 cells were treated with control, or with the synthesized compounds.
Then cells were lysed in 250 μL precold lysis buffer (pH 7.4: Tris‐Base [10 mM], NaCl [100 mM], ethylenediaminetetraacetic acid [EDTA, 25 mM], ethylene glycol bis (2‐aminoethyl) tetraacetic acid [EGTA, 25 mM], 1% [v/v] NP‐40, and 1% [v/v] Triton X‐100) supplemented with 1:350 protease:phosphatase inhibitors cocktail (Sigma). The cells were immediately frozen at −20°C for 1.5 hours for further lysis, collected by cell scraper, sonicated 3 × 10 seconds, and centrifuged (13000 rpm, 15 minutes). Total protein concentrations in the supernatant were determined colorimetrically using the Pierce 660 nm Protein Assay method (Thermo Fisher Scientific, Rockford, IL), with BSA as the standard. Equal amounts of protein (25 μg) samples were mixed with SDS‐loading buffer (pH 6.8: Tris‐HCl [700 mM], dithiothreitol [DTT, 600 mM], sodium dodecyl sulfate [SDS, 12%], glycerol [60%], and bromophenol blue [0.012%]), denatured by boiling at 95°C for 10 minutes, allowed to cool on ice for 15 minutes, vortexed vigorously for 30 seconds and loaded into SDS‐polyacrylamide gel and separated by an electrophoresis unit (Cleaver Scientific Ltd, UK), transferred onto polyvinylidene fluoride membranes (Bio‐Rad) for 35 minutes using a Trans‐Blot SD semi‐dry transfer cell (Bio‐Rad) at 250 mA and 22 V. Membranes were blocked with 5% (w/v) blotting grade dry milk (Bio‐Rad) in Tris‐buffered saline/Tween‐20 (TBS‐ T) (pH 7.5: Tris‐base [20 mM], NaCl [150 mM], and 0.05% [v/v] Tween‐ 20) while shaking for 1.5 hour at RT, and then incubated with the corresponding primary antibody against cleaved caspase‐3 antibody ([…], #9661; Cell Signaling Technology), β‐actin (1:2000, #A5060; Sigma), BAX (Biovision, USA) and Bcl‐2( Bioimaging, system, syngene, UK) for 9‐10 hours at 4°C in a […]
three separate experiments. […]
the synthesized compounds towards VEGFR-2. The crystal structure of VEGFR-2 was […]
2.03 Å). Sorafenib was used as reference ligand. To prepare the target protein, water molecules […]
fields. […] The validation […]
process was performed by redocking the co-crystallized ligand. The designed compounds together […]
followed by energy minimization then prepared for docking. Docking process was carried through […]
binding mode with target molecule.

Bcl-2 = assay: Western blot, Bcl-2 level in HepG2 cells; settings: HepG2, 24 h
Procedure: as §1, §2, §3
Then cells were lysed in 250 μL precold lysis buffer (pH 7.4: Tris‐Base [10 mM], NaCl [100 mM], ethylenediaminetetraacetic acid [EDTA, 25 mM], ethylene glycol bis (2‐aminoethyl) tetraacetic acid [EGTA, 25 mM], 1% [v/v] NP‐40, and 1% [v/v] Triton X‐100) supplemented with 1:350 protease:phosphatase inhibitors cocktail (Sigma). The cells were immediately frozen at −20°C for 1.5 hours for further lysis, collected by cell scraper, sonicated 3 × 10 seconds, and centrifuged (13000 rpm, 15 minutes). Total protein concentrations in the supernatant were determined colorimetrically using the Pierce 660 nm Protein Assay method (Thermo Fisher Scientific, Rockford, IL), with BSA as the standard. […]

HepG2 cells = assay: Flow cytometry cell cycle analysis (PI staining); settings: HepG2, 10.50 µM, 24 h
Procedure: Compound 12I, achieved notable cytotoxic and VEGFR-2 inhibitory potencies was further studied mechanistically for cell cycle progression and induction of apoptosis in HepG2 cells. Cell cycle process was analysed after exposure of HepG2 cells to 12I with a concentration of 10.50 µM for 24 h.
This assay was applied using propidium iodide (PI) staining in accordance with the comprehensive description in Supplementary data[34]^,[35] […]
3. Flow cytometry analysis for cell cycle
To determine the role of the synthesized compounds in cell cycle distribution, cell cycle analysis was performed using propidium iodide (PI) staining and flow cytometry analysis for compound
12l. Flow Cytometry Kit for Cell Cycle Analysis (ab139418_Propidium Iodide Flow Cytometry Kit/BD) was used in this test. HepG2 cells were treated with compound 12l (10.50 µM) for 24 h.
Then, the cells were fixed in 70% ethanol at 4 °C for 12 h. After that, the cells were washed with cold PBS, incubated with 100 μl RNase A at 37 °C for 30 min, and stained with 400 μl PI in the dark at room temperature for further 30 min. The stained cells were measured using Epics XL-MCL™ Flow Cytometer (Beckman Coulter), and the data were analyzed using Flowing software (version 2.5.1, Turku Centre for Biotechnology, Turku, Finland) .

WI-38 cell line = assay: In vitro cytotoxicity against normal cell line (MTT); parameters: LogIC50 best-fit value, WI-38: unit not given here
Excerpt: […]. Such values were very high in comparison to the corresponding values on cancer cell lines, which reflect high safety profile of the tested candidates towards normal cell lines.
(§4) MTT assay protocol. This method was applied in accordance with the comprehensive description in Supplementary data. […]
(§5) 5 Raw data of cytotoxity and VEGFR -2 assay […]
(§6) Experimental of biological testing
(§7) 1. In vitro anti-proliferative activity
(§8) MTT assay protocol was applied to assess the anti-proliferative activity of the synthesized compounds. Two human cancer cell lines (MCF-7 and HepG-2) and one normal cell line (WI-38) were used in this test. At first, the cell lines were cultured in RPMI -1640 medium with 10% fetal bovine serum. Antibiotics (100 units/ml penicillin and100 µg/ml streptomycin ) were added at 37 °C in a 5% CO2 incubator. The cell lines were seeded in a 96-well plate at a density of 1.0 x 10^4 cells / well at 37 °C for 24 h under 5% CO2. After incubation, the cells were treated with different […]
(§9) concentration of the synthesized compounds and incubated for 24 h. After 24 h of drug treatment, 20 µl of MTT solution at 5mg/ml was added and incubated for 4 h. Dimethyl sulfoxide (DMSO) in volume of 100 µl was added into each well to dissolve the purple formazan formed. The colorimetric assay was measured and recorded at absorbance of 570 nm using a plate reader (EXL 800, USA). The relative cell viability in percentage was calculated as (A570 of treated samples/A570 of untreated sample) X 100. […]

HepG2 cell line = assay: In vitro anti-proliferative MTT assay, HepG2; settings: Homo sapiens
Excerpt: The cytotoxicity results were obtained as median growth inhibitory concentration (IC50).
as §4, §5, §6, §7, §8, §9

[1] = supplement raw data, dose-response curve fit

Cc1ccc2oc(SCC(=O)Nc3ccc(C(=O)Nc4cccc(Cl)c4)cc3)nc2c1 [Compound 12l, N-(3-Chlorophenyl)-4–(2-((5-methylbenzo[d]oxazol-2-yl)thio)acetamido)benzamide]
Protein expression (normalized to β-actin) BAX (BAX; control = 1.00): 3.40 ± 0.15 | Protein expression (normalized to β-actin) BAX/Bcl-2 ratio (BAX; control = 1.00): 6.83 ± 0.96 | BAX level increase (BAX; versus control): 3.40 fold | BAX/Bcl-2 ratio increase (BAX; versus control): 6.83 fold | Protein expression (normalized to β-actin) Bcl-2 (Bcl-2; control = 1.00): 0.47 ± 0.05 | Bcl-2 level decrease (Bcl-2; versus control): 2.12 fold | Cell cycle distribution %S (HepG2 cells): 38.68% | Cell cycle distribution % G2/M (HepG2 cells; listed as 12I): 32.10% | Cell cycle distribution %Sub-G1 (Pre-G1) (HepG2 cells; listed as 12I): 0.79% | Cell cycle distribution % G2/M (HepG2 cells; listed as 12 l): 32.10 ± 181 % | Cell cycle distribution %G1 (HepG2 cells; listed as 12 l): 28.43 ± 0.37 % | Cell cycle distribution %S (HepG2 cells; listed as 12 l): 38.68 ± 1.81 % | Cell cycle distribution %Sub-G1 (Pre-G1) (HepG2 cells; listed as 12 l): 0.79 ± 0.25% | IC50 (WI-38 cell line; WI-38, normal human lung cell line, MTT): 37.8 µM | HillSlope best-fit value, WI-38 (WI-38 cell line; [1]): -0.4502 | LogIC50 best-fit value, WI-38 (WI-38 cell line; [1]): 1.577 | IC50 (HepG2 cell line; HepG2, 24 h, MTT, 24 h treatment, mean of three experiments, read-out: In vitro IC50 HepG2): 10.5 ± 0.8 µM | IC50 (HepG2 cell line; HepG2, supplement raw data, dose-response curve fit, read-out: LogIC50 best-fit value, HepG2 (converted)): 10.5 µM
